{"source": "patent US11883423B2", "about": "“Nucleobase analogue derivatives and their applications” (BOARD OF REGENTS, THE UNIVERSITY OF TEXAS SYSTEM, priority 2014, dated 2024)", "key": {"[1]": {"tested_on": "pre-established tumors", "conditions": "solubilized in a Tween 80 solution; cited from earlier work"}, "[2]": {"test": "Aqueous solubility measured directly (direct method)", "assay_type": "physicochemical", "conditions": "mean ± SD (n=3)", "method": "(§1) In order to validate the method of Beall et al. (Id.), the aqueous solubility of 4-(N)-stearoyl gemcitabine, another lipophilic gemcitabine conjugate (Sloat BR et al. Int J Pharm. 2011, 409(1-2), 278-288), which is stable in water, was measured directly (i.e., direct method) or using the indirect method reported by Beall et al. (Beall HD et al. International Journal of Pharmaceutics. 1993, 93, 37-47)."}, "[3]": {"test": "Aqueous solubility by the indirect method (IPM/water partitioning, Beall et al.)", "assay_type": "physicochemical", "conditions": "mean ± SD (n=3)", "method": "The aqueous solubility of Gem-DHA was determined following an indirect method according to Beall et al. with minimal modifications (Beall HD et al. International Journal of Pharmaceutics. 1993, 93, 37-47). Briefly, an excess amount of Gem-DHA was added to 100 μl of IPM in a crimp-sealed amber glass vials under nitrogen and was stirred vigorously at room temperature for 24 h, protected from light. After the stirring was stopped, the mixture was left to stand for an additional 24 h for equilibration. The content of the vial was centrifuged (14,000 rpm, 10 min) and the supernatant was transferred into a different tube. Aliquots of the saturated IPM solution were used to measure the Gem-DHA concentration before partitioning (A1) using HPLC (after proper dilution with methanol). Then, water was added to the IPM saturated solution in a volume ratio of 10:1. The two phases were mixed by vortexing for 5 min, left to stand for 15 min, then centrifuged (14,000 rpm, 15 min) to collect the IPM layer. Gem-DHA concentration in the IPM layer (A2) was again measured using HPLC after partitioning. The following equation was used to calculate the partition coefficient (KIPM/water) (Beall HD et al. International Journal of Pharmaceutics. 1993, 93, 37-47):\n[formula] where Vwater is the volume of the water phase and VIPM is the volume of IPM. The value of (Vwater/VIPM) was 10.\nThe aqueous solubility (Sw) of Gem-DHA was determined using the following equation (Id.):\n[formula] where SIPM is the solubility of Gem-DHA in IPM.\nas §1"}, "[4]": {"tested_on": "MIA PaCa-2, Panc-1 cells, CCRF-CEM, B16-F10, and TC-1", "conditions": "various tumor cell lines in culture; cited from earlier work"}, "[5]": {"tested_on": "MIA PaCa-2 cells", "test": "Cytotoxicity of Gem-ARA, MTT assay, MIA PaCa-2 cells", "assay_type": "cell-based, human", "conditions": "up to 72 h, mean ± SD (n>3)", "method": "(§2) To understand the effect of the omega-3 polyunsaturated fatty acid nature of the DHA (i.e., the docosahexaedecanoyl group) in the Gem-DHA on its cytotoxicity against tumor cells, gemcitabine was also conjugated to arachidonic acid, an omega-6 polyunsaturated fatty acid, to synthesize 4-(N)-arachidonyl gemcitabine (Gem-ARA) (FIG. 4). Human pancreatic cancer cells (MIA PaCa-2 or BxPC-3) were seeded (3,000/well) in 96-well plates. After overnight incubation, cells were treated with various concentrations of gemcitabine HCl or Gem-ARA at 37° C., 5% CO2 for up to 72 h. Gemcitabine HCl was dissolved in phosphate buffered saline (PBS, pH 7.4, 10 mM), and Gem-ARA was dissolved in DMSO. The maximum amount of DMSO added per well was 0.9 μL, which was found non-toxic. The number of viable cells after the incubation was determined using an MTT assay as described above. The 50% inhibition concentration (IC50) values were estimated using GraphPad prism 5 parameters curve fittings."}, "[6]": {"tested_on": "BxPC-3 cells", "test": "Cytotoxicity of Gem-ARA, MTT assay, BxPC-3 cells", "assay_type": "cell-based, human", "conditions": "up to 72 h, mean ± SD (n>3)", "method": "as §2"}, "[7]": {"tested_on": "advanced pancreatic cancer", "conditions": "in combination with gemcitabine; cited from earlier work"}, "[8]": {"tested_on": "Panc-02 tumor cells", "test": "Cytotoxicity after 4 h co-incubation, MTT test", "assay_type": "cell-based, mouse", "conditions": "Panc-02 cells, at concentrations of more than 80 μM", "method": "The mechanisms underlying the cytotoxicity of the Gem-DHA may be different from that of gemcitabine. For example, in cell culture studies, Panc-02 cells were seeded into 96-well plates (1,500 cells per well) and incubated at 37° C., 5% CO2 for 24 h. They were then co-incubated with various concentrations of Gem-DHA, gemcitabine HCl alone, or DHA alone for 4 h, and cell viability was determined using an MTT test."}, "[9]": {"tested_on": "Panc-02 tumors", "test": "Antitumor activity against s.c. Panc-02 tumors in C57BL/6 mice", "assay_type": "in vivo", "conditions": "i.p., ~0.1 mmole/kg, twice a week, up to 6 doses", "method": "Therefore, the in vivo anti-tumor activity of Gem-DHA was also evaluated and compared to that of DHA alone in male C57BL/6 mice (6-8 weeks, Charles River) with subcutaneously (s.c.)\nimplanted Panc-02 tumors. Briefly, 1×10^6 cells were s.c. injected in the right flank of mice. Sixteen days later, mice were randomized into groups (n=12) and i.p. injected with Gem-DHA (˜55 mg/kg, […]) or DHA (˜33 mg/kg, ˜0.1 mmole/kg). Mice in the control group were i.p. injected with sterile 5% mannitol (w/v). Gem-DHA and DHA was dissolved in a Tween 80/ethanol/water solution with 5% (w/v) of mannitol. The doses were based on the average weight of mice in the same group on the first day of injection. The treatment was repeated twice a week for up to 6 doses. Tumor growth was monitored using a digital caliper, and tumor volume was calculated based on the longest diameter (L1) and the shortest diameter (L2) of each tumor using the equation of V=½×(L1×L2×L2)."}, "[10]": {"tested_on": "NCI-56 human tumor cell lines", "conditions": "cited from earlier work"}}}
{"smiles": "CCCCCCCCCCCCCCCCCC(=O)Nc1ccn([C@@H]2OC(CO)C(O)C2(F)F)c(=O)n1", "note": "(some centres unmarked) [Stearoyl gemcitabine, 4-(N)-stearoyl gemcitabine]", "values": [{"measurement": "Inhibition of tumor growth compared with gemcitabine", "setting": "[1]", "result": "not more active than gemcitabine alone"}, {"measurement": "Water Solubility, Direct method", "setting": "[2]", "result": "1.38 ± 1.6", "unit": "µg/mL"}, {"measurement": "KIPM/water (partition coefficient)", "setting": "[3]; IPM/water, room temperature", "result": "35.33 ± 2.7"}, {"measurement": "Water Solubility, Indirect method", "setting": "[3]; estimated from solubility in IPM and KIPM/water", "result": "1.39 ± 0.1", "unit": "µg/mL"}, {"measurement": "Cytotoxicity compared with gemcitabine", "setting": "[4]", "result": "less cytotoxic than gemcitabine alone"}]}
{"smiles": "CCCCC/C=C\\C/C=C\\C/C=C\\C/C=C\\CCCC(=O)Nc1ccn([C@@H]2O[C@H](CO)[C@@H](O)C2(F)F)c(=O)n1", "note": "[Gem-ARA, 4-(N)-Arachidonoyl Gemcitabine]", "values": [{"measurement": "IC50", "setting": "[5]", "result": "64.3 ± 42.7", "unit": "nM"}, {"measurement": "IC50", "setting": "[6]", "result": "1.93 ± 3.8", "unit": "nM"}]}
{"smiles": "C#Cc1cccc(Nc2ncnc3cc(OCCOC)c(OCCOC)cc23)c1", "note": "[erlotinib]", "values": [{"measurement": "Prolongation of median survival", "setting": "[7]", "result": 10, "unit": "days"}]}
{"smiles": "CC/C=C\\C/C=C\\C/C=C\\C/C=C\\C/C=C\\C/C=C\\CCC(=O)O", "note": "[DHA, Cis-4,7,10,13,16,19-docosahexaenoic acid, reference compound]", "values": [{"measurement": "Cytotoxicity after 4 h of co-incubation", "setting": "[8]", "result": "did not show any significant cytotoxicity"}, {"measurement": "Inhibition of Panc-02 tumor growth", "setting": "[9]", "result": "did not significantly inhibit the tumor growth"}]}
{"smiles": "CC/C=C\\C/C=C\\C/C=C\\C/C=C\\C/C=C\\C/C=C/CCC(=O)O[C@@H](C(=O)O[C@H]1C[C@@]2(O)[C@@H](OC(=O)c3ccccc3)C3[C@](C)(C(=O)[C@H](OC(C)=O)C(=C1C)C2(C)C)[C@@H](O)C[C@H]1OC[C@@]31OC(C)=O)[C@@H](NC(=O)c1ccccc1)c1ccccc1", "note": "(some centres unmarked) [DHA conjugated to paclitaxel]", "values": [{"measurement": "Effect of DHA conjugation on cytotoxicity", "setting": "[10]", "result": "lowers the cytotoxicity of the paclitaxel"}]}
